Test systems include 786-0; A549; HT-29; Hs-578T; IGROV-1; KM12; LOX IMVI; MCF7; MDA-MB-231; MDA-N; NCI-H226; NCI-H460; OVCAR-4; PC-3; SK-MEL-5; SNB-19; SR; SW-620; T47D; UACC-62.
Common to all, as to assay: NCI anticancer screen, dose series, 48 h

Data on 4 compounds can be found in ChEMBL document CHEMBL1201862, “PubChem BioAssay data set” (2004).

Each structure is given as a SMILES string.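 All cell lines were grown in 96-well plates and treated with compound for 48 hours. GI50 marks 50% less growth.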 Calls of active or inactive are those of the source. Rule as the data show it: active = GI50 up to about 1.1 µM and inactive = higher.

Take `Cn1c(-c2ccccc2)cc(-c2ccsc2)c1-c1ccsc1`: the GI50 in the test on 786-0 is > 100 µM (inactive); in the test with A549, > 100 µM (inactive); in the test with HT-29 it was 67.3 µM (inactive); in the test on Hs-578T, > 100 µM (inactive); in the test on IGROV-1, > 100 µM (inactive); with KM12, > 100 µM (inactive). Also, the GI50 in the test with LOX IMVI is > 100 µM (inactive); in the test with MCF7, > 100 µM (inactive); with MDA-MB-231, > 100 µM (inactive); in the test with MDA-N, > 100 µM (inactive); with NCI-H226 it was 6.81 µM (inactive); in the test with NCI-H460, > 100 µM (inactive). Further, the GI50 in the test on OVCAR-4 is > 100 µM (inactive); with PC-3 it was > 100 µM (inactive); with SK-MEL-5, > 100 µM (inactive); with SNB-19 it was 17.2 µM (inactive); in the test on SR it was 9.66 µM (inactive); in the test with SW-620, > 100 µM (inactive). Also, the GI50 in the test on T47D and in the test on UACC-62 was > 100 µM (inactive) in each case.
Take `O=C1c2c(Br)sc(Br)c2[C@@H](Cl)[C@H]1Cl`: the GI50 is 24.5 µM (inactive) in the test on 786-0; 29 µM (inactive) with A549; 28.4 µM (inactive) in the test on HT-29; 36.6 µM (inactive) with Hs-578T; 17.7 µM (inactive) with IGROV-1; 17.2 µM (inactive) with KM12. Also, the GI50 in the test with LOX IMVI was 15.2 µM (inactive); in the test on MCF7, 21.5 µM (inactive); with MDA-MB-231 it was 19.5 µM (inactive); in the test with MDA-N, 11 µM (inactive); with NCI-H226 it was 16.4 µM (inactive); in the test on NCI-H460, 19.4 µM (inactive). Moreover, the GI50 in the test on OVCAR-4 was 18.2 µM (inactive); with PC-3, 18.7 µM (inactive); in the test on SK-MEL-5 it was 16.1 µM (inactive); with SNB-19, 18.9 µM (inactive); in the test on SR, 2.81 µM (inactive); with SW-620, 5.08 µM (inactive). Also, the GI50 was 19 µM (inactive) in the test on T47D and 18.2 µM (inactive) in the test on UACC-62.
As to `CN(C)CCNC(=O)c1cccc2nc3cccc(F)c3nc12`, the GI50 is 0.653 µM (active) in the test on 786-0; 0.53 µM (active) with A549; 0.867 µM (active) with HT-29; 1.41 µM (inactive) in the test with Hs-578T; 1.6 µM (inactive) in the test with IGROV-1; 1.42 µM (inactive) in the test on KM12. Besides, the GI50 is 0.614 µM (active) in the test on LOX IMVI; 1.48 µM (inactive) in the test with MCF7; 1.32 µM (inactive) in the test with MDA-MB-231; 1.46 µM (inactive) in the test with MDA-N; 1.24 µM (inactive) with NCI-H226; 0.579 µM (active) with NCI-H460. The GI50 in the test with OVCAR-4 is 1.47 µM (inactive); with PC-3, 1.38 µM (inactive); in the test with SK-MEL-5, 1.13 µM (inactive); in the test with SNB-19 it was 2.21 µM (inactive); with SR, 0.57 µM (active); with SW-620, 0.65 µM (active). In addition, the GI50 was 3.31 µM (inactive) with T47D and 2.88 µM (inactive) with UACC-62.
For the compound `COC(=O)C12Oc3ccc(-c4ccc5c(c4O)C(O)=C4C(=O)CC(C)C(O)C4(C(=O)OC)O5)c(O)c3C(O)=C1C(=O)CC(C)C2O` (stereo not given), the GI50 is 0.314 µM (active) in the test with 786-0; 0.0702 µM (active) with A549; 0.0495 µM (active) with HT-29; 0.135 µM (active) in the test with Hs-578T; 0.104 µM (active) in the test on IGROV-1; 0.0555 µM (active) in the test on KM12. Besides, the GI50 with LOX IMVI was 0.151 µM (active); with MCF7, 0.151 µM (active); with MDA-MB-231, 0.63 µM (active); with MDA-N it was 0.125 µM (active); in the test on NCI-H226 it was 0.416 µM (active); in the test with NCI-H460, 0.0421 µM (active). The GI50 in the test with OVCAR-4 was 0.467 µM (active); in the test on PC-3, 0.0764 µM (active); in the test with SK-MEL-5, 0.0394 µM (active); with SNB-19 it was 0.583 µM (active); in the test with SR, 0.0234 µM (active); in the test on SW-620, 0.0889 µM (active). The GI50 with T47D is 0.25 µM (active); in the test with UACC-62 it was 0.0708 µM (active).
